Key:
Assay in all cases: relative viability (nuclei count vs DMSO), 5 days (fraction); higher = more cells survive
[1] = compound: C1COCCN1C2=NC(=NC3=C2OC4=C3C=CC=N4)C5=CC(=CC=C5)NC(=O)C6=CN=C(C=C6)N + C[C@@H](Oc1cc(-c2cnn(C3CCNCC3)c2)cnc1N)c1c(Cl)ccc(F)c1Cl [Crizotinib] (partner 1 µM)
Summary of the method: (§1)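 One day after seeding in 1536-well plates, lung cancer cell lines were dosed by pin tool. Dosing was either single-drug or a fixed anchor-drug dose plus five library-drug doses (not always all listed) in √10 steps. After 5 days, nuclei were stained in one fix-and-stain step and counted on 4× images, and relative viability is the nuclei count of treated wells over that of vehicle wells, given as the median of duplicate plates.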

Entinostat + Palbociclib = compound: Nc1ccccc1NC(=O)c1ccc(CNC(=O)OCc2cccnc2)cc1 [Entinostat] + CC(=O)c1c(C)c2cnc(Nc3ccc(N4CCNCC4)cn3)nc2n(C2CCCC2)c1=O [Palbociclib] (partner 0.5 µM)
Summary of the method: as §1

Entinostat + OSI-027 = compound: Nc1ccccc1NC(=O)c1ccc(CNC(=O)OCc2cccnc2)cc1 [Entinostat] + COc1cccc2cc(-c3nc([C@H]4CC[C@H](C(=O)O)CC4)n4ncnc(N)c34)[nH]c12 [OSI-027] (partner 0.5 µM)
Summary of the method: as §1

Entinostat + Pemetrexed = compound: Nc1ccccc1NC(=O)c1ccc(CNC(=O)OCc2cccnc2)cc1 [Entinostat] + Nc1nc2[nH]cc(CCc3ccc(C(=O)N[C@@H](CCC(=O)O)C(=O)O)cc3)c2c(=O)[nH]1 [Pemetrexed] (partner 0.2 µM)
Summary of the method: as §1

Cell Line UMC-11 has a relative viability ([1]; first compound 0.02 µM) of 0.564, a relative viability ([1]; first compound 0.06325 µM) of 0.59 and a relative viability ([1]; first compound 0.2 µM) of 0.677. For the same cell line, the relative viability ([1]; first compound 0.6325 µM) was 0.672, the relative viability ([1]; first compound 2 µM) was 0.498 and the relative viability (Entinostat + Palbociclib; first compound 0.02 µM) was 0.367. For the same cell line, the relative viability (Entinostat + Palbociclib; first compound 0.06325 µM) was 0.338, the relative viability (Entinostat + Palbociclib; first compound 0.2 µM) was 0.367 and the relative viability (Entinostat + Palbociclib; first compound 0.6325 µM) was 0.274. It also gave a relative viability (Entinostat + Palbociclib; first compound 2 µM) of 0.202, a relative viability (Entinostat + OSI-027; first compound 0.02 µM) of 0.445 and a relative viability (Entinostat + OSI-027; first compound 0.06325 µM) of 0.499. For the same cell line, the relative viability (Entinostat + OSI-027; first compound 0.2 µM) was 0.388, the relative viability (Entinostat + OSI-027; first compound 0.6325 µM) was 0.207 and the relative viability (Entinostat + OSI-027; first compound 2 µM) was 0.213. It also gave a relative viability (Entinostat + Pemetrexed; first compound 0.02 µM) of 0.733, a relative viability (Entinostat + Pemetrexed; first compound 0.06325 µM) of 0.738 and a relative viability (Entinostat + Pemetrexed; first compound 0.2 µM) of 0.5. The relative viability (Entinostat + Pemetrexed; first compound 0.6325 µM) was 0.346 and the relative viability (Entinostat + Pemetrexed; first compound 2 µM) was 0.145.

— the supplement of paper PMC10307832
